Two compounds from patent US4992449A, “7-(substituted)cycloalkylamino-1 -(substituted)-6-fluoro-1,4-dihydro-4-oxo-3-quinolinecarboxylic acids” (American Cyanamid Company, priority 1990, dated 1991) can be followed below.

What all share (assay): In vitro antibacterial MIC, agar plate dilution
What all share (assay type): cell-based

The subject of test [1] is Pseudomonas aeruginosa VGH 84-16. Particulars: VGH8416, Mueller-Hinton agar, 10^4 CFU, 18 hours, 35° C. Summed up: (§1)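 Agar plate dilution on Mueller-Hinton agar, with about 10^4 colony forming units of each organism applied by Steers replicating device. MIC, in mcg/ml, is the lowest compound concentration preventing visible growth after 18 hours at 35° C.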
Test [2] deals with Pseudomonas aeruginosa VGH 84-3. Particulars: VGH843, Mueller-Hinton agar, 10^4 CFU, 18 hours, 35° C. Summed up: as §1
Another test has as its system Staphylococcus SSC 82-56. Particulars: SSC8256, 18 h, Table II. Summed up: as §1
In test [3] the test system is Klebsiella neumoniae CMC 84-31. The note with it: CMC8431, Mueller-Hinton agar, 10^4 CFU, 18 hours, 35° C. The gist of the method: as §1
Test [4] deals with Staphylococcus aureus CMC 83-131. Particulars: CMC83131, Mueller-Hinton agar, 10^4 CFU, 18 hours, 35° C. The gist of the method: as §1
For test [5], the system named is Escherichia coli CMC 84-50. The note with it: CMC8450, Mueller-Hinton agar, 10^4 CFU, 18 hours, 35° C. Summed up: as §1
Test [6] concerns Staphylococcus aureus NEMC 87-59. Particulars: NEMC8759, 18 h, Table II. Summed up:
as §1

The test system of test [7] is Serratia marcescens IO 83-63. Particulars: IO8363, Mueller-Hinton agar, 10^4 CFU, 18 hours, 35° C. The gist of the method:
as §1

The test system of test [8] is Pseudomonas aeruginosa VGH 84-4. Particulars: Pseudomonas aeruginosa, VGH844, 18 h, Table II, read-out: MIC. Summed up:
as §1

The test system of test [9] is Citrobacter diversus K 82-24. Particulars: Citrobacter koseri, K8224, Mueller-Hinton agar, 10^4 CFU, 18 hours, 35° C. Summed up:
as §1

Test [10] relates to Enterobacter cloacae MOR 84-30. The note with it: MOR8430, Mueller-Hinton agar, 10^4 CFU, 18 hours, 35° C. The gist of the method: as §1
Test [11] deals with Klebsiella neumoniae MOR 84-24. Particulars: MOR8424, Mueller-Hinton agar, 10^4 CFU, 18 hours, 35° C. The gist of the method: as §1
The test system of test [12] is Streptococcus faecalis UCI 85-30. The note with it: Enterococcus faecalis, UCI8530, Mueller-Hinton agar, 10^4 CFU, 18 hours, 35° C. Summed up: as §1

Values after ≈ are worked out from the molar mass of the structure shown. Bounds are passed on as bounds.

As to `N[C@H]1CCC[C@H]1Nc1cc2c(cc1F)c(=O)c(C(=O)O)cn2-c1ccc(F)cc1` (relative stereo) [Example 3], the MIC in test [1] was greater than 16 µg/mL; in test [2], greater than 16 µg/mL; against Staphylococcus SSC 82-56, 2 µg/mL (≈ 5.01 µM); in test [3] it was 4 µg/mL (≈ 10 µM); in [4], greater than 16 µg/mL; in [5], 4 µg/mL (≈ 10 µM). Also, the MIC in [6] is 4 µg/mL (≈ 10 µM); in [7], 4 µg/mL (≈ 10 µM); in test [8], 16 µg/mL (≈ 40.1 µM); in [9] it was 2 µg/mL (≈ 5.01 µM); in test [10], 8 µg/mL (≈ 20 µM); in [11], 4 µg/mL (≈ 10 µM). This compound also had an MIC in [12] greater than 16 µg/mL.
For the compound `CCn1cc(C(=O)O)c(=O)c2cc(F)c(N[C@@H]3CCC[C@@H]3N)cc21` (relative stereo) [Example 4, Cis-7-[(2-Aminocyclopentyl)amino]-1-ethyl-6-fluoro-1,4-dihydro-4-oxo-3-quinolinecarboxylic acid], the MIC is greater than 16 µg/mL in [1]; greater than 16 µg/mL in test [2]; 2 µg/mL (≈ 6 µM) in test [3]; 2 µg/mL (≈ 6 µM) in test [5]; 1 µg/mL (≈ 3 µM) in test [7]; 64 µg/mL (≈ 192 µM) in test [8]. The MIC in [9] was 0.5 µg/mL (≈ 1.5 µM); in test [10], 4 µg/mL (≈ 12 µM); in test [11] it was 2 µg/mL (≈ 6 µM); in test [12], 4 µg/mL (≈ 12 µM).

One may read the MIC as the lowest concentration found to suppress growth.
